Laboratory results reported in the NIST ThermoML archive (doi:10.1016/j.jct.2018.08.036).
Numbers after ± are expanded uncertainties.

Experiments:
[1] = xn = mol fraction of the nth substance listed; conditions: 100 kPa, Liquid; for viscosity: Falling or rolling sphere viscometry; for speed of sound: Frequency=3 MHz, Single path-length method; for mass density: Vibrating tube method
[2] = refractive index (Na D-line) (dimensionless); xn = mol fraction of the nth substance listed; conditions: 100 kPa, Liquid, Standard Abbe refractometry

CCC(C)c1ccccc1 (centres undefined) [(1-methylpropyl)benzene] + CCCCCCCCCCCCCCCC
Conditions	mass density, [1] [kg/m3]	refractive index, [2]	speed of sound, [1] [m/s]	viscosity, [1] [mPa·s]
298.15 K, x2 = 0	857.89 ± 0.42	1.4876 ± 0.0004	1313.8 ± 1	0.912 ± 0.021
298.15 K, x2 = 0.0702	846.08 ± 1.6	1.4801 ± 0.0011	1312 ± 1	1.004 ± 0.028
298.15 K, x2 = 0.1382	836.12 ± 1.4	1.4738 ± 0.0009	1311.4 ± 1	1.112 ± 0.033
298.15 K, x2 = 0.2541	821.7 ± 1.3	1.4647 ± 0.0009	1312.4 ± 1	1.33 ± 0.037
298.15 K, x2 = 0.3113	815.5 ± 1.1	1.4608 ± 0.0008	1313.7 ± 1	1.449 ± 0.04
298.15 K, x2 = 0.4028	806.76 ± 1	1.4553 ± 0.0007	1316.1 ± 1	1.644 ± 0.044
298.15 K, x2 = 0.4757	800.6 ± 0.92	1.4515 ± 0.0007	1318.4 ± 1	1.793 ± 0.046
298.15 K, x2 = 0.5349	796.04 ± 0.84	1.4486 ± 0.0006	1320.7 ± 1	1.924 ± 0.049
298.15 K, x2 = 0.6167	790.37 ± 0.77	1.4451 ± 0.0006	1323.2 ± 1	2.101 ± 0.053
298.15 K, x2 = 0.7476	782.25 ± 0.73	1.4401 ± 0.0006	1328.3 ± 1	2.387 ± 0.058
298.15 K, x2 = 0.832	777.71 ± 0.65	1.4373 ± 0.0005	1331.6 ± 1	2.587 ± 0.062
308.15 K, x2 = 0	849.78 ± 0.42	1.4827 ± 0.0004	1274.5 ± 1	0.796 ± 0.021
308.15 K, x2 = 0.0702	838.16 ± 1.6	1.4753 ± 0.0011	1273.2 ± 1	0.874 ± 0.027
308.15 K, x2 = 0.1382	828.35 ± 1.4	1.469 ± 0.0009	1273.1 ± 1	0.954 ± 0.03
308.15 K, x2 = 0.2541	814.15 ± 1.3	1.46 ± 0.0009	1274.7 ± 1	1.128 ± 0.035
308.15 K, x2 = 0.3113	808.04 ± 1.1	1.4562 ± 0.0007	1276.1 ± 1	1.223 ± 0.037
308.15 K, x2 = 0.4028	799.42 ± 0.99	1.4508 ± 0.0007	1278.8 ± 1	1.375 ± 0.041
308.15 K, x2 = 0.4757	793.34 ± 0.91	1.447 ± 0.0007	1281.2 ± 1	1.493 ± 0.044
308.15 K, x2 = 0.5349	788.84 ± 0.83	1.4441 ± 0.0006	1283.5 ± 1	1.592 ± 0.046
308.15 K, x2 = 0.6167	783.24 ± 0.76	1.4407 ± 0.0006	1286.2 ± 1	1.734 ± 0.05
308.15 K, x2 = 0.7476	775.3 ± 0.72	1.4358 ± 0.0006	1291.7 ± 1	1.95 ± 0.055
308.15 K, x2 = 0.832	770.73 ± 0.64	1.433 ± 0.0005	1294.6 ± 1	2.099 ± 0.059
318.15 K, x2 = 0	841.64 ± 0.42	1.4778 ± 0.0004	1235.7 ± 1	0.707 ± 0.021
318.15 K, x2 = 0.0702	830.21 ± 1.6	1.4704 ± 0.0011	1235 ± 1	0.771 ± 0.026
318.15 K, x2 = 0.1382	820.55 ± 1.3	1.4642 ± 0.0009	1235.3 ± 1	0.838 ± 0.029
318.15 K, x2 = 0.2541	806.57 ± 1.2	1.4553 ± 0.0008	1237.4 ± 1	0.975 ± 0.033
318.15 K, x2 = 0.3113	800.55 ± 1.1	1.4516 ± 0.0007	1239 ± 1	1.05 ± 0.036
318.15 K, x2 = 0.4028	792.05 ± 0.98	1.4462 ± 0.0007	1241.9 ± 1	1.174 ± 0.04
318.15 K, x2 = 0.4757	786.06 ± 0.89	1.4425 ± 0.0006	1244.5 ± 1	1.275 ± 0.043
318.15 K, x2 = 0.5349	781.7 ± 0.82	1.4398 ± 0.0006	1246.8 ± 1	1.356 ± 0.044
318.15 K, x2 = 0.6167	776.09 ± 0.76	1.4364 ± 0.0006	1249.7 ± 1	1.468 ± 0.048
318.15 K, x2 = 0.7476	768.18 ± 0.71	1.4315 ± 0.0006	1254.5 ± 1	1.642 ± 0.053
318.15 K, x2 = 0.832	763.74 ± 0.64	1.4288 ± 0.0005	1258.2 ± 1	1.762 ± 0.057

CCCc1ccccc1 [propylbenzene] + CCCCCCCCCCCCCCCC
Conditions	mass density, [1] [kg/m3]	refractive index, [2]	speed of sound, [1] [m/s]	viscosity, [1] [mPa·s]
298.15 K, x2 = 0	858.45 ± 0.22	1.4896 ± 0.0004	1320.6 ± 0.6	0.792 ± 0.021
298.15 K, x2 = 0.0627	846.52 ± 1.8	1.4817 ± 0.0013	1317.3 ± 0.8	0.872 ± 0.027
298.15 K, x2 = 0.1009	840.12 ± 1.5	1.4775 ± 0.001	1315.7 ± 0.7	0.928 ± 0.029
298.15 K, x2 = 0.207	825.01 ± 1.3	1.4677 ± 0.0009	1314.8 ± 0.7	1.092 ± 0.033
298.15 K, x2 = 0.3093	813.2 ± 1.1	1.4602 ± 0.0008	1315.7 ± 0.8	1.269 ± 0.038
298.15 K, x2 = 0.3863	805.79 ± 0.92	1.4554 ± 0.0007	1317.7 ± 0.8	1.408 ± 0.042
298.15 K, x2 = 0.5055	796.08 ± 0.85	1.4492 ± 0.0007	1320.9 ± 0.8	1.654 ± 0.047
298.15 K, x2 = 0.5603	792.22 ± 0.72	1.4467 ± 0.0006	1322.7 ± 0.9	1.776 ± 0.05
298.15 K, x2 = 0.7042	783.32 ± 0.69	1.441 ± 0.0006	1327.7 ± 0.9	2.114 ± 0.056
298.15 K, x2 = 0.7728	779.76 ± 0.62	1.4387 ± 0.0005	1330 ± 1	2.291 ± 0.061
298.15 K, x2 = 0.8468	776.25 ± 0.58	1.4365 ± 0.0005	1332.8 ± 1	2.505 ± 0.065
308.15 K, x2 = 0	850.01 ± 0.22	1.4844 ± 0.0004	1280.6 ± 0.6	0.699 ± 0.021
308.15 K, x2 = 0.0627	838.3 ± 1.8	1.4766 ± 0.0013	1277.8 ± 0.8	0.766 ± 0.026
308.15 K, x2 = 0.1009	832.03 ± 1.5	1.4724 ± 0.001	1276.8 ± 0.7	0.813 ± 0.028
308.15 K, x2 = 0.207	817.19 ± 1.3	1.4628 ± 0.0009	1276.4 ± 0.7	0.949 ± 0.032
308.15 K, x2 = 0.3093	805.67 ± 1.1	1.4554 ± 0.0008	1277.9 ± 0.8	1.09 ± 0.036
308.15 K, x2 = 0.3863	798.39 ± 0.9	1.4509 ± 0.0007	1279.9 ± 0.8	1.203 ± 0.039
308.15 K, x2 = 0.5055	788.78 ± 0.85	1.4448 ± 0.0007	1283.6 ± 0.9	1.396 ± 0.045
308.15 K, x2 = 0.5603	784.97 ± 0.7	1.4424 ± 0.0006	1285.4 ± 0.9	1.495 ± 0.047
308.15 K, x2 = 0.7042	776.34 ± 0.69	1.4368 ± 0.0006	1290.5 ± 0.9	1.761 ± 0.053
308.15 K, x2 = 0.7728	772.78 ± 0.62	1.4346 ± 0.0005	1292.9 ± 1	1.886 ± 0.057
308.15 K, x2 = 0.8468	769.24 ± 0.58	1.4323 ± 0.0005	1295.7 ± 1	2.05 ± 0.06
318.15 K, x2 = 0	841.53 ± 0.22	1.4792 ± 0.0004	1241 ± 0.6	0.626 ± 0.021
318.15 K, x2 = 0.0627	830.05 ± 1.8	1.4713 ± 0.0013	1238.8 ± 0.7	0.683 ± 0.025
318.15 K, x2 = 0.1009	823.89 ± 1.4	1.4673 ± 0.001	1238.2 ± 0.7	0.722 ± 0.027
318.15 K, x2 = 0.207	809.33 ± 1.3	1.4578 ± 0.0009	1238.5 ± 0.7	0.835 ± 0.031
318.15 K, x2 = 0.3093	798.09 ± 1.1	1.4506 ± 0.0008	1240.4 ± 0.8	0.952 ± 0.035
318.15 K, x2 = 0.3863	790.87 ± 0.9	1.4461 ± 0.0007	1242.7 ± 0.8	1.044 ± 0.038
318.15 K, x2 = 0.5055	781.4 ± 0.83	1.4402 ± 0.0006	1246.6 ± 0.9	1.2 ± 0.043
318.15 K, x2 = 0.5603	777.68 ± 0.7	1.4378 ± 0.0006	1248.6 ± 0.9	1.28 ± 0.045
318.15 K, x2 = 0.7042	769.05 ± 0.68	1.4324 ± 0.0006	1253.6 ± 0.9	1.485 ± 0.051
318.15 K, x2 = 0.7728	765.61 ± 0.61	1.4302 ± 0.0005	1256.2 ± 1	1.585 ± 0.055
318.15 K, x2 = 0.8468	762.23 ± 0.58	1.428 ± 0.0005	1258.9 ± 1	1.713 ± 0.058
